From publication PMC4246079, “Structure and Mechanism of the Bifunctional CinA Enzyme from Thermus thermophilus” (The Journal of Biological Chemistry, 2014)

Experiments:
TtCinA [1] = molecular target: T1, TtCinA (Thermus thermophilus, UniProt Q5SHB0); assay: X-ray crystal structure ([…] Å; crystal soak); type: binding; settings: ADPR site of COG1058 domain, both sites; 5 mM MgCl2, 25 mM ligand, Mg2+ bound; no hydrolysis seen
T1 construct: gene TTHA1820; full-length, N-terminal His6 tag with thrombin site (pET28a, thrombin-treated), expressed in E. coli T7 Express; asymmetric homodimer (~72 kDa by SEC, 86 kDa predicted dimer)
T1 sequence (Q5SHB0 entry or part of it): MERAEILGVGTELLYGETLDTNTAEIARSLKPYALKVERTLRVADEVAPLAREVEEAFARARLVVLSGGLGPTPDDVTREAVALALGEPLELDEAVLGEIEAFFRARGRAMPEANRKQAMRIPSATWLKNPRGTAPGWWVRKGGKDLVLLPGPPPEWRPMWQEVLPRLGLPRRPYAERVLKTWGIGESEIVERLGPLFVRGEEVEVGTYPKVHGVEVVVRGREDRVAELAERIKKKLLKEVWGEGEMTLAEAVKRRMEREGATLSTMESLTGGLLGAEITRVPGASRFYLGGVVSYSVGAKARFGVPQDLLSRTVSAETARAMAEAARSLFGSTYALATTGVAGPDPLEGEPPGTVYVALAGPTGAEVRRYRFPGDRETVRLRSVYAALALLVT

TtCinA [2] = molecular target: T1, TtCinA; assay: X-ray crystal structure ([…] Å; crystal soak); turnover to AMP also seen by HPLC; type: binding; settings: ADPR site of COG1058 domain, both open and closed sites; 5 mM MgCl2, 25 mM ligand, Mg2+ bound; HPLC assay with 1 mM ADP-ribose, 4 mM CoCl2, 100 mM KCl, pH 8.0, 50 °C
TtCinA [3] = molecular target: T1, TtCinA; assay: X-ray crystal structure ([…] Å; crystal soak); type: binding; settings: ADPR site of COG1058 domain, open site only, weaker density; 5 mM MgCl2, 25 mM ligand (AMP/ribose 5-phosphate), Mg2+ bound
TtCinA [4] = molecular target: T1, TtCinA; assay: reverse-phase HPLC of conversion to NCN; type: biochemical; settings: NMN deamidase; 1 mM NMN, 100 μg enzyme per ml, 25 mM Tris-HCl pH 8.0, 100 mM NaCl, 37 °C, 15 min
TtCinA [5] = molecular target: T1, TtCinA; assay: X-ray crystal structure ([…] Å; crystal soaked with NMN); type: binding; settings: NMN deamidase site; built as product NCN by presumption, density could not distinguish NMN from NCN; 5 mM MgCl2, 25 mM NMN soak

## Nc1ncnc2c1ncn2[C@@H]1O[C@H](COP(=O)(O)OP(=O)(O)OP(=O)(O)O)[C@@H](O)[C@H]1O [ATP]
TtCinA [1]
  X-ray crystal structure (2.21 Å; crystal soak): ATP binds in a very similar conformation to ADP-ribose

## Nc1ncnc2c1ncn2[C@@H]1O[C@H](COP(=O)(O)OP(=O)(O)OC[C@H]2OC(O)[C@H](O)[C@@H]2O)[C@@H](O)[C@H]1O (some centres unmarked) [ADP-ribose]
TtCinA [2]
  X-ray crystal structure (1.99 Å; crystal soak); turnover to AMP also seen by HPL: ADP-ribose and ATP data sets produced clear difference density in both catalytic sites

## Nc1ncnc2c1ncn2[C@@H]1O[C@H](COP(=O)(O)O)[C@@H](O)[C@H]1O [AMP]
TtCinA [3]
  X-ray crystal structure (1.98 Å; crystal soak): it was possible to model in an AMP molecule in one of the two active sites

## NC(=O)c1ccc[n+]([C@@H]2O[C@H](COP(=O)([O-])O)[C@@H](O)[C@H]2O)c1 [NMN, nicotinamide mononucleotide]
TtCinA [4]
  reverse-phase HPLC of conversion to NCN: NMN showed rapid conversion to NCN product in the presence of TtCinA

## O=C([O-])c1ccc[n+]([C@@H]2O[C@H](COP(=O)(O)O)[C@@H](O)[C@H]2O)c1 [NCN, nicotinate mononucleotide]
TtCinA [5]
  X-ray crystal structure (2.46 Å; crystal soaked with NMN): it was not possible to distinguish NMN from the product, NCN
